Holding throughout (experiment): NCI-60 cell line screen, 48 h
The subject of assay [1] is EKVX NSCLC.
For assay [2], the system named is SF-295 CNS.
The test system of assay [3] is M14 melanoma.
The subject of assay [4] is SW-620 colon.
The subject of assay [5] is OVCAR-5 ovarian.
Assay [6] deals with U251 CNS.
The test system of assay [7] is RXF 393 renal.
For assay [8], the system named is A549 NSCLC.

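A five-concentration, 48-hour dose response in 96-well plates underlies each endpoint, interpolated linearly between surrounding concentrations. The concentration for 50% growth inhibition is given as GI50. TGI marks complete inhibition of growth.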

On to `Cc1ccc(C)c(N2CCN(c3ccncc3N)CC2)c1`, for which the GI50 in assay [1] was 10.8 µM; in assay [2] it was 11.1 µM; in assay [3], 23 µM; in assay [4] it was 5.13 µM; in assay [5], 22.1 µM; in assay [6] it was 4.78 µM. In addition, the GI50 is 9.31 µM in assay [7] and 17.5 µM in assay [8]. Besides, the TGI in assay [1] was 84.8 µM; in assay [2], 38.5 µM; in assay [3] it was 62.1 µM; in assay [4] it was 24.6 µM; in assay [5], over 100 µM; in assay [6], 97.4 µM. The TGI in assay [7] is 36.4 µM; in assay [8], over 100 µM.

`COc1cc2c(c3oc4c(O)cccc4c(=O)c13)CC(C(C)(O)CCl)O2` (configuration not stated): the TGI in assay [1] is 21.9 µM; in assay [2] it was 24.1 µM; in assay [3], 1.27 µM; in assay [4], 3.74 µM; in assay [5], 34 µM; in assay [6], 12.5 µM. Also, the TGI in assay [7] is 2.43 µM; in assay [8] it was 13.6 µM.

Consider `Oc1ccccc1/C=N\NC(=S)Nc1ccc(F)cc1`, for which the GI50 is 3.91 µM in assay [1]; 1.38 µM in assay [2]; 1.01 µM in assay [3]; 1.17 µM in assay [4]; 4.63 µM in assay [5]; 0.639 µM in assay [6]. In addition, the GI50 in assay [7] is 2.63 µM; in assay [8], 2.33 µM. Besides, the TGI in assay [1] was over 50.4 µM; in assay [3], 3.57 µM; in assay [4], over 100 µM; in assay [5] it was over 100 µM; in assay [6] it was over 100 µM; in assay [7], 65.8 µM. This molecule also displayed a TGI in assay [8] of over 100 µM.

In the case of `NS(=O)(=O)c1cccc(Nc2cc(-c3ccc(F)cc3)[nH]n2)c1`, the GI50 in assay [1] is over 25 µM; in assay [2], over 25 µM; in assay [3], over 25 µM; in assay [4], over 23.2 µM; in assay [5], over 25 µM; in assay [6] it was 16.5 µM. Further, the GI50 was 17.8 µM in assay [7] and over 24.1 µM in assay [8]. Besides, the TGI in assay [1], in assay [2], in assay [3], in assay [4], in assay [5] and in assay [6] was over 25 µM throughout. The TGI in assay [7] and in assay [8] was over 25 µM each time.

Turning to `N#Cc1ccc2c(-c3ccnc(NC4CC4)n3)c(-c3ccc(F)cc3)nn2c1`, the GI50 in assay [1], in assay [2], in assay [3], in assay [4], in assay [5] and in assay [6] was over 25 µM each time. The GI50 in assay [7] and in assay [8] was over 25 µM each time. The TGI in assay [1], in assay [2], in assay [3], in assay [4], in assay [5] and in assay [6] was over 25 µM each time. Also, the TGI in assay [7] and in assay [8] was over 25 µM in each case.

Consider `NP1(Oc2ccc(F)cc2)=NP(N)(Oc2ccc(F)cc2)=NP(Oc2ccc(F)cc2)(Oc2ccc(F)cc2)=N1` (configuration not stated), for which the TGI came to 19 µM in assay [1]; 15.4 µM in assay [2]; 19.4 µM in assay [3]; 24.8 µM in assay [4]; 23.7 µM in assay [5]; 15.9 µM in assay [6]. The molecule further gave a TGI in assay [8] of 14.6 µM.

As to `COc1ccc(/C=C\c2cc(OC)c(OC)c(OC)c2)cc1NC(=O)/C=C/c1cc(OC)c(OC)c(OC)c1`, the GI50 in assay [1] was over 100 µM; in assay [3] it was 3.15 µM; in assay [4], 5.2 µM; in assay [5], 5.74 µM; in assay [6], 3.82 µM; in assay [7], 2.66 µM. Moreover, the GI50 in assay [8] is 3.82 µM. Moreover, the TGI in assay [1] was over 100 µM; in assay [3], over 100 µM; in assay [4], over 100 µM; in assay [5], over 100 µM; in assay [6] it was over 100 µM; in assay [7] it was 8.96 µM. Besides, the TGI in assay [8] was over 100 µM.

For `O=C(CC1(O)C(=O)Nc2ccc(Cl)cc21)c1ccc(C(=O)NCC2CCC3(CC2)OOC2(CCCCC2)OO3)cc1` (configuration not stated), the GI50 was 1.59 µM in assay [1]; 2.15 µM in assay [2]; 4.41 µM in assay [3]; 2.13 µM in assay [4]; 4.21 µM in assay [5]; 1.64 µM in assay [6]. Also, the GI50 in assay [7] is 2.8 µM. Moreover, the TGI came out at 4.3 µM in assay [1]; 9.31 µM in assay [2]; 24.6 µM in assay [3]; 4.61 µM in assay [4]; 30.9 µM in assay [5]; 3.39 µM in assay [6]. Further, the TGI in assay [7] came to 9.16 µM.

As for `COc1cccc(/C=C\C(=O)c2ccccc2)c1`, the GI50 in assay [2] was 8.45 µM; in assay [3], 11.7 µM; in assay [4], 2.7 µM; in assay [5], 9.84 µM; in assay [6] it was 2.77 µM; in assay [7], 2.46 µM. In addition, in assay [8], the GI50 was 15 µM. Moreover, the TGI was determined as 27.5 µM in assay [2]; 28.8 µM in assay [3]; 7.31 µM in assay [4]; 41.2 µM in assay [5]; 14.1 µM in assay [6]; 5.34 µM in assay [7]. For the same molecule, the TGI in assay [8] is 40.5 µM.

As for `Cc1ccc2nc(CN(CCN(Cc3nc4ccc(C)cc4[nH]3)Cc3nc4ccc(C)cc4[nH]3)Cc3nc4ccc(C)cc4[nH]3)[nH]c2c1`, the GI50 was 1.44 µM in assay [1]; 1.55 µM in assay [2]; 1.65 µM in assay [3]; 1.63 µM in assay [5]; 1.61 µM in assay [6]; 1.86 µM in assay [8]. The TGI in assay [1] was 2.75 µM; in assay [2] it was 2.89 µM; in assay [3], 3.1 µM; in assay [5], 3 µM; in assay [6] it was 2.97 µM; in assay [8], 3.54 µM.

`ClC/C=C/CSc1ncnc2nc[nH]c12`: the GI50 in assay [1], in assay [2], in assay [3], in assay [4], in assay [5] and in assay [6] was over 100 µM each time. Further, the GI50 in assay [7] is over 100 µM. Besides, the TGI in assay [1], in assay [2], in assay [3], in assay [4], in assay [5] and in assay [6] was over 100 µM throughout. Further, the TGI in assay [7] was over 100 µM.

As to `CCOC(=O)Nc1cc2c(c(N)n1)N=C(c1ccc(Cl)cc1Cl)CN2`, the TGI in assay [1] was found to be 31.9 µM; in assay [2], 0.0108 µM; in assay [3] it was 43.4 µM; in assay [4], 30.4 µM; in assay [5], 45.1 µM; in assay [6] it was 18 µM. Besides, the TGI in assay [8] came to 19.3 µM.

In the case of `COc1cc([C@H]2OC[C@@H]3C(c4cc(OC)c5c(c4)OCO5)OC[C@H]23)cc(OC)c1OC` (some centres not stated), the TGI in assay [1], in assay [2], in assay [3], in assay [4], in assay [5] and in assay [6] was over 100 µM in each case. This molecule came in with a TGI in assay [8] of over 100 µM.

Consider `COc1cc(/C=N\Nc2ccccc2)ccc1OC(=O)c1ccccc1`, for which the GI50 in assay [2] was 1.92 µM; in assay [3], 0.677 µM; in assay [4], 0.736 µM; in assay [5], 12.8 µM; in assay [6] it was 8.38 µM; in assay [7], 23.2 µM. In addition, the GI50 in assay [8] is 4.01 µM. Besides, the TGI in assay [2] is 10.7 µM; in assay [3], 15.8 µM; in assay [4], 19.9 µM; in assay [5], over 100 µM; in assay [6], 36.5 µM; in assay [7] it was 74.6 µM. The molecule also registered a TGI in assay [8] of 37.5 µM.

Turning to `C=C(C)[C@@H]1CC[C@]2(C(=O)O)CC[C@]3(C)[C@H](CC[C@@H]4[C@@]5(C)CCC(N)C(C)(C)[C@@H]5CC[C@]43C)[C@@H]12` (some centres not stated), the GI50 in assay [6] was 1.95 µM; in assay [7], 1.77 µM. In addition, the TGI in assay [6] is 3.6 µM; in assay [7], 3.31 µM.

Regarding `OC[C@H]1C[C@](O)(c2ccccc2Cl)[C@@H](c2ccccc2Cl)O1`, the GI50 in assay [1] was 19.2 µM; in assay [2] it was 27.1 µM; in assay [4] it was 30.1 µM; in assay [5] it was 23 µM; in assay [6], 28.5 µM; in assay [7] it was 18.7 µM. Further, the GI50 in assay [8] was 22.9 µM. For the same molecule, the TGI in assay [1] is 52.2 µM; in assay [2], 94.6 µM; in assay [4] it was over 100 µM; in assay [5] it was 70.8 µM; in assay [6] it was over 100 µM; in assay [7] it was 37.9 µM. In assay [8], this molecule registered a TGI of 58.1 µM.

For `COc1ccccc1NC(=O)c1sc2ncn(CCOc3ccccc3)c(=O)c2c1C`, the GI50 in assay [1] is 5.08 µM; in assay [2] it was 1.69 µM; in assay [3], 3.54 µM; in assay [4], 2.33 µM; in assay [5], 39.2 µM; in assay [6], 3.5 µM. In addition, the GI50 in assay [8] was 3.36 µM. Moreover, the TGI in assay [1], in assay [2], in assay [3], in assay [4], in assay [5] and in assay [6] was over 50 µM throughout. The molecule further registered a TGI in assay [8] of over 50 µM.

As for `O=C1c2ccccc2-c2cn(Cc3ccccc3)c3cccc(c23)C1c1cccnc1` (configuration not stated), the GI50 is 9.61 µM in assay [1]; 2.02 µM in assay [2]; 3.89 µM in assay [3]; 1.88 µM in assay [4]; over 50 µM in assay [5]; 8.1 µM in assay [7]. In addition, in assay [8], the GI50 was 3.2 µM. Further, the TGI in assay [1], in assay [2], in assay [3], in assay [4], in assay [5] and in assay [7] was over 50 µM each time. The TGI in assay [8] is over 50 µM.

In the case of `COc1cc(C(=O)/C=C/c2c[nH]c3ccccc23)cc(OC)c1OC`, the GI50 in assay [1] was 0.0605 µM; in assay [3], under 0.0155 µM; in assay [4] it was under 0.0123 µM; in assay [5], 0.0728 µM; in assay [6] it was under 0.0195 µM; in assay [7], 0.0238 µM. Further, in assay [8], the GI50 was 0.0339 µM. The TGI in assay [1] was over 100 µM; in assay [3] it was 39.4 µM; in assay [4] it was over 100 µM; in assay [5], over 100 µM; in assay [6] it was 16.1 µM; in assay [7], 34.7 µM. The molecule also showed a TGI in assay [8] of 24.2 µM.

As for `CCCCCCCCCC(=O)Oc1ccc(/C(=C(/C)c2ccccc2)c2ccc(OCCN3CCCC3)cc2)cc1`, the GI50 is 6.92 µM in assay [1]; 7.93 µM in assay [2]; 8.57 µM in assay [4]; 8.56 µM in assay [5]; 8.01 µM in assay [6]; 6.95 µM in assay [7]. Also, the GI50 in assay [8] was 9.35 µM. For the same molecule, the TGI is 13.6 µM in assay [1]; 15.1 µM in assay [2]; 15.6 µM in assay [4]; 16.5 µM in assay [5]; 15.4 µM in assay [6]; 14.1 µM in assay [7]. In assay [8], this molecule had a TGI of 17.7 µM.

For the molecule `O=C1c2ccc3c4c(ccc(c24)C(=O)N1CCCCO)C(=O)N(CCCCO)C3=O`, the GI50 was 1.14 µM in assay [2]; 1.86 µM in assay [4]; 1.57 µM in assay [5]; 2.14 µM in assay [6]; 2.08 µM in assay [7]; 1.93 µM in assay [8]. Further, the TGI was found to be 4.84 µM in assay [2]; 10.1 µM in assay [4]; 4.06 µM in assay [5]; 6.57 µM in assay [6]; 10.7 µM in assay [7]; 6.65 µM in assay [8].

Take `CC1=C(C(=S)Nc2ccc(Cl)c(C(=O)OC(C)C)c2)SCCO1`: the TGI is 54.4 µM in assay [1]; 36.4 µM in assay [2]; 44 µM in assay [3]; 44.7 µM in assay [4]; over 100 µM in assay [5]; 36.2 µM in assay [6]. Further, the TGI in assay [8] was found to be 84.1 µM.

Source of the values: PubChem BioAssay (NCI).
